Source: US6395308B1, “Purified extract from Harpagophytum procumbens and/or Harpagophytum zeyheri dence” (Finzekberg GmbH & Co. KG, priority 1996, dated 2002)

What was measured:
[1] = stability in artificial gastric juice; format: in vitro ADME; details: both in pure form and in diluted form
[2] = stability in artificial intestinal juice; format: in vitro ADME; details: both in pure form and in diluted form

stability in artificial gastric juice [1]: stable for at least two hours | stability in artificial intestinal juice [2]: stable for at least two hours
Structure (SMILES): C[C@]1(OC(=O)/C=C/c2ccccc2)C[C@@H](O)[C@]2(O)C=CO[C@@H](O[C@@H]3O[C@H](CO)[C@@H](O)[C@H](O)[C@H]3O)[C@@H]21 [harpagoside]
